Article PMC9525908, “α-Crystallin chaperone mimetic drugs inhibit lens γ-crystallin aggregation: Potential role for cataract prevention” (The Journal of Biological Chemistry, 2022)
Where a chain is given by its changes, count along the chain named.

Assays:
[1] = molecular target: T1, W43R mutant of HγD (Homo sapiens, UniProt P07320, W43R); assay: Kinetic turbidity assay at 42 °C of W43R mutant; assay type: biochemical; details: for Effect on aggregation of W43R mutant: 0–500 μM, 42 °C for 200 min, G at 400 and 500 μM; for inhibition at 500 µM: 500 μM drug, 42 °C, 200 min, read-out: Inhibition of aggregation (%) W43R
T1 construct: made in house; host or cells: E. coli BL21(DE3) pLysS
T1 sequence (P07320 1-174 W43R): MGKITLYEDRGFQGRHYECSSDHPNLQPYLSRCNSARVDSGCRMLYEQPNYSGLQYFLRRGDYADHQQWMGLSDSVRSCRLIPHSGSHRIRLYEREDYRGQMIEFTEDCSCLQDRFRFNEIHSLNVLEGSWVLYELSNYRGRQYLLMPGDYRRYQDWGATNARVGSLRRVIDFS
Procedure: (§1) Aggregation kinetics assays at 600 nm in the presence of varying concentrations (0, 100, 200, 300, 400, and 500 μM) of our selected drugs were also performed on mutants of HγD (W43R, W42Q, R14C, and R58H) and MγS (F9S) at a concentration of 1 mg/ml in 50 mM K3PO4 buffer (pH 7.2) in a total volume of 100 μl. WT-HγD and WT-MγS crystallin served as controls for their respective mutant versions. For W43R mutant, aggregation assay was done at 42 °C for a total of 200 min. Absorbance was monitored every 10 min. For R14C and R58H mutants, end-point turbidity assay was done at 72 °C for 20 min. […] All the experiments were run in duplicates or triplicates.

[2] = molecular target: T2, MγS (Mus musculus, UniProt O35486); assay: Steady-state tryptophan fluorescence quenching, MγS; assay type: binding
T2 construct: made in house; host or cells: E. coli BL21(DE3) pLysS, pET17b vector
T2 sequence (O35486 1-178): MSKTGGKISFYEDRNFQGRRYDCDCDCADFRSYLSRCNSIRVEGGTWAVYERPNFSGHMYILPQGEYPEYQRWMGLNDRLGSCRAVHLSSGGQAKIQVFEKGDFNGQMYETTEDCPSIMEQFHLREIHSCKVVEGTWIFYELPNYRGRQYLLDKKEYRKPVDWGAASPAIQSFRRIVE
Procedure: Tryptophan fluorescence can be used for studying conformational changes resulting from protein–drug interactions ([44]). Fluorescence quenching of aromatic fluorophores in HγD and MγS by drugs C and G at three different temperatures (25, 30, and 37 °C) was studied in the presence of varying concentrations of drug C and G (0–250 μM). As shown in Figs. S5A and S6A, both HγD and MγS have a strong emission peak at 330 nm when excited at 295 nm. In both cases, quenching occurs with gradual addition of C and G at all three temperatures. Overall, quenching of Trp fluorescence emission is at highest at 25 °C (Figs. S5A and S6A) followed by 30 °C and lowest at 37 °C. […] The slope of plot Fo/F versus [Q] gives Ksv (Figs. S5B and S6B), whereas Kb is obtained from intercept of plot log (Fo/F − 1) versus log[Q] (Figs. S5C and S6C). […] For drug M, Kb values are of the order 10^2 M^−1 only. Fluorescence quenching can be either because of random collision between the molecules (dynamic interaction) or because of actual affinity between a protein pocket and drug (static interaction). Dynamic interactions are weaker and nonspecific in nature, whereas static interactions are stronger and more specific ([47]). For more information on the type of interaction, Kq was calculated and compared with the standard value of 2 × 10^10 M^−1s^−1, which is the maximum scatter collision quenching constant of various quenchers with biopolymers ([48]). […] Furthermore, the differential response of Ksv toward temperature change also clarifies the type of quenching. In static quenching, Ksv decreases with an increase in temperature because of the formation of complex with protein, which undergoes dissociation on increasing temperature.
To gauge the strength of the major forces involved in drug–protein complex formation, change in free energy was calculated using Gibbs–Helmholtz equation (Equation 3).(3) ΔG=-RTlnKb ([50]) where, R is gas constant and its value is […], T is absolute temperature (Kelvin) and Kb is binding constant whose value is already calculated using Equation 2. […] Free energy changes are negative at all three temperatures, being maximal at 25 °C. For C, G, and M interaction with HγD, ΔG values were −6.4, −7.9, and −1.9 kcal/mol (at 25 °C), that is, similar to those obtained by molecular docking as described later. These values also reflect the fact that drug M had the least protective effect on unfolding or aggregation of various γ-crystallins (Figs. 2 and S4).
All the steady-state fluorescence measurements were recorded on Fluoromax Spectrofluorometer (Horiba Scientific). For fluorescence quenching measurements, 10 μM of both HγD and MγS crystallins were titrated with varying concentrations of drugs C, G, and M (0–250 μM) at 25, 30, and 37 °C. These samples were excited at 295 nm, and the fluorescence emission was collected from 310 to 410 nm.

[3] = molecular target: T3, R58H mutant of HγD (Homo sapiens, UniProt P07320, R59H); assay: End-point turbidity assay (72 °C, 20 min) of R58H mutant; assay type: biochemical; details: 500 μM drug, read-out: Inhibition of aggregation (%) R58H
T3 construct: made in house; host or cells: E. coli BL21(DE3) pLysS
T3 sequence (P07320 1-174 R59H): T1 sequence (P07320 1-174 W43R) with R43W, R59H
Procedure: as §1

[4] = molecular target: T4, WT-HγD crystallin (Homo sapiens, UniProt P07320); assay: Dynamic light scattering of thermally stressed WT-HγD; assay type: biochemical; details: for Size (radius) of aggregates: 50 μM WT-HγD, 400 μM drug, 72 °C 20 min, 7261 nm without drugs
T4 construct: made in house; host or cells: E. coli BL21(DE3) pLysS, pET3d vector
T4 sequence (P07320 1-174): T1 sequence (P07320 1-174 W43R) with R43W
Procedure: Efficacy of our selected drugs in preventing the formation of protein aggregates was measured by DLS. Measurements were performed on a Wyatt DynaPro Nanostar. For DLS temperature scan experiment, pure and filtered protein samples (1 mg/ml in 10 mM sodium phosphate buffer, pH 7.2) with and without drugs (400 μM) were analyzed by DLS over a temperature range of 30 to 90 °C. Multiple scans were run for every data point, and the results represent average of individual scans. DLS spectra were also recorded for the samples at the end point of turbidity assay.

[5] = WT-HγD, end point of thermal stress 72 °C 20 min

SMILES | Effect on aggregation of W43R mutant [1] | inhibition at 500 µM [1] [%] | KSV ([2]; 25 °C) [M^−1 ×10^3] | Kq ([2]; 25 °C) [M^−1 s^−1 ×10^12] | ΔG ([2]; 25 °C) [kcalM^−1] | KSV ([2]; 30 °C) [M^−1 ×10^3] | Kq ([2]; 30 °C) [M^−1 s^−1 ×10^12] | ΔG ([2]; 30 °C) [kcalM^−1] | KSV ([2]; 37 °C) [M^−1 ×10^3] | Kq ([2]; 37 °C) [M^−1 s^−1 ×10^12] | ΔG ([2]; 37 °C) [kcalM^−1] | inhibition at 500 µM [3] [%] | Size (radius) of aggregates [4] [nm] | Percent Mass Peak 1 [4, 5] [%] | Radius (nm) Peak 1 [4, 5] [nm] | Percent Mass Peak 2 [4, 5] [%] | Radius (nm) Peak 2 [4, 5] [nm]
Cc1cc(C(C#N)c2ccc(Cl)cc2)c(Cl)cc1NC(=O)c1cc(I)cc(I)c1O (stereo not drawn) [drug C, Closantel] | worsened the aggregation | -34 | 4.828 | 0.847 | −7.0 | 4.249 | 0.745 | −6.2 | 2.988 | 0.524 | −4.1 | 55 | 30.5 | 100 | 30.5 | – | –
O=C(O)CCCCCCCCCCCC[C@@H]1C=CCC1 [drug M, Chaulmoogric acid] | no effect | 14 | 0.793 | 0.14 | −2.7 | 0.733 | 0.13 | −2.6 | 0.491 | – | −2.2 | 44 | 569 | 12.7 | 10.9 | 87.3 | 568.5
CC(C)=CCC[C@]1(C)C=Cc2c(O)c3c(c(CC=C(C)C)c2O1)O[C@]12C(=C[C@@H]4C[C@H]1C(C)(C)O[C@@]2(C/C=C(/C)C(=O)O)C4=O)C3=O [drug G, Gambogic acid] | protected the mutant against aggregation | 52 | 7.283 | 1.37 | – | 8.034 | 1.4 | −5.6 | 4.905 | 0.86 | −6.5 | 83 | 84.9 | 100 | 84.9 | – | –
